Results published in patent publication US5536723A, “S-nitroso derivatives of hydrazinoacetic acids, 1-[(acylthio and (mercapto)-1-oxoalkyl]-1,2,34-Tetrahydroquinoline-2-carboxylic acids and alanyl prolines and isoquinolines” (Brigham & Women's Hospital, priority 1994, dated 1996).
“Also recorded” adds a separate entry of the source. Like-named read-outs stand apart in the source and are kept apart here.

Tests used:
[1] = tested on: bovine femoral artery, contraction to angiotensin II; experiment: contraction of the bovine femoral artery to angiotensin II
Procedure: The data are expressed as a percentage of the maximal response to norepinephrine (10^-4 M) and are shown as mean ±SEM in each group (n=6).
(§1) Blood Vessel Preparation. Bovine coronary or femoral arteries were obtained from an abattoir immediately after sacrifice of two- to four-week-old calves. Immediately after removal, the vessel was placed in ice-cold physiologic salt solution (PSS) containing 118.3 mM NaCl, 4.7 mM KCl, 2.5 mM CaCl2, 1.2 mM MgSO4, 1.2 mM KH2 PO4, 25.0 mM NaHCO3, 11.1 mM glucose, and 0.026 mM calcium disodium (ethylenedinitrilo)-tetraacetate. The vessels were then cleaned of adventitial tissue and cut into rings of approximately 5 mm lengths. When called for by the protocol, endothelium was removed from a ring by gently rubbing the luminal surface with a watchmaker's forceps. Vascular rings with intact endothelium were then suspended in organ chambers containing 25 ml of PSS at 37° aerated with 95% O2 -5% CO2. The rings were connected to force transducers (Grass FT03C, Quincy, Mass.) and changes in isometric force recorded continuously (Grass Polygraph Model 79B) over a period of 90 minutes. The optimal length-tension relationship was determined for each ring by observing the response to 10^-6 M norepinephrine after increments in tension of 0.5 gm. The functional integrity of the endothelium was assessed by contracting the vessel with 10^-6 M norepinephrine and then observing the response to 3×10^-7 M acetylcholine chloride.

[2] = tested on: cGMP (and cAMP) in platelets; experiment: cGMP (and cAMP) levels in platelets; type: cell-based; details: 10^-5 M, one minute
Procedure: (§2) Since the postulated mechanism by which the nitrosothiol moiety of S-nitrosocaptopril directly relaxes vascular smooth muscle and attenuates the platelet aggregation response is believed to be through activation of soluble guanylate cyclase, cGMP (and cAMP) levels were measured in vessel ring segments and in platelets incubated with 10^-5 M S-nitrosocaptopril.

[3] = decay of the S-nitroso bond in plasma (PPP); type: in vitro ADME; details: room temperature
Procedure: The half-life of the S-nitroso bond of S-nitrosocaptopril in physiologic buffer and in plasma was determined by incubating purified S-nitrosocaptopril in aerated PSS or in PPP, the results of which are shown in FIG. 1.

bovine femoral artery = experiment: relaxation of isolated bovine femoral artery rings contracted with norepinephrine; details: for IC50: Bos taurus
Procedure: FIG. 2 depicts a graph showing the effect of S-nitrosocaptopril on the contraction of bovine femoral arteries to norepinephrine.
as §1
Vascular ring segments with intact endothelium were […] contracted with a concentration of norepinephrine inducing a half-maximal response. After a stable contraction had been achieved, the tissue was exposed to increasing concentrations of S-nitrosocaptopril in cumulative half-log increments. […] The apparent IC50 is approximately 1 μM.

bovine coronary artery = experiment: relaxation of isolated bovine coronary artery rings contracted with potassium chloride
Description: FIG. 5 depicts a graph showing the relaxation to sodium nitroprusside in the bovine coronary artery in the presence (o; n=7) or absence (; n:12) of a subthreshhold dose of S-nitrosocaptopril. The data are expressed as a percentage of the initial tension generated by potassium chloride (4×10^-2 M; coronary arteries) and are shown as mean ±SEM in each group.
as §1
Thus, to study vasodilating agents in this tissue the vessels were first contracted with potassium chloride (40 mM). Relaxations are expressed as a percent of the concentration to 40 mM potassium chloride.
Relaxations to S-nitrosocaptopril were inhibited by the antagonist of soluble guanylate cyclase, methylene blue (FIG. 4). Sodium nitroprusside induced dose-dependent relaxations of contractions to potassium chloride. The relaxation to sodium nitroprusside was inhibited by subthreshold doses of S-nitrosocaptopril (FIG. 5).

[4] = tested on: bovine femoral artery, contraction to angiotensin I; experiment: contraction of the bovine femoral artery to angiotensin I
Procedure: The data are expressed as a percentage of the maximal response to norepinephrine (10^-6 M) and are shown as mean ±SEM in each group (n=7).
as §1

[5] = tested on: cGMP (and cAMP) in vascular rings; experiment: cGMP (and cAMP) levels in vessel ring segments; type: cell-based; details: 10^-5 M, one minute
Procedure: as §2

[6] = arterial pressure in the anesthetized rabbit; type: in vivo; details: 1 mM solution infused in an ear vein, 0.02 to 2.2 ml/min
Procedure: A 1 mM solution of S-nitrosocaptopril was infused in an ear vein of the rabbit at rates from 0.02 to 2.2 ml/min and the phasic and mean arterial pressure recorded in the femoral artery.

With `C[C@H](CSN=O)C(=O)N1CCC[C@H]1C(=O)O` [S-nitrosocaptopril] the “shift rightward in the dose response curve to angiotensin II” value [1] was 5 fold, the “responses to angiotensin II in the presence of S-nitrosocaptopril (in words)” value ([1]; 10^-6 M, FIG. 10) was “significantly less than control” and the “cAMP levels, platelets (in words)” value [2] was “did not change from basal levels”. The “cGMP level, platelets” value [2] was 5.44 pmoles/10^8 platelets, the fold induction at 10 µM ([2]; Platelet, 1 min, read-out: increase of cGMP levels, platelets) was 11.3 and the “estimated half-life of the S-nitroso bond” value [3] was roughly 2.5 h. For the same compound, the IC50 (bovine femoral artery; compared with coronary artery, p<0.05, n=6, read-out: IC50 (relaxation, femoral artery)) was 5600 nM, the IC50 (bovine femoral artery; norepinephrine-contracted, intact endothelium, FIG. 2, read-out: apparent IC50 (relaxation)) was roughly 1000 nM and the “potency of vasodilation relative to S-nitroso-N-acetylpenicillamine (literature value in the bovine coronary artery)” value (bovine femoral artery; compared with Ignarro et al.) was “approximately one order of magnitude weaker”. The “relaxation response (in words)” value (bovine femoral artery; norepinephrine-contracted, FIG. 2) was “induced dose-dependant relaxation; also recorded: progressive relaxation was observed”, the IC50 (bovine coronary artery; Bos taurus, contracted with potassium chloride (40 mM)) was 1900 nM and the Emax (bovine coronary artery; Bos taurus, contracted with potassium chloride (40 mM), read-out: maximal relaxation, coronary artery) was 97 ± 7%. The “maximum inhibitory effect / relaxation, coronary artery compared with femoral artery (in words)” value (bovine coronary artery; FIG. 3) was “significantly greater than those in the femoral artery (p<0.05); also recorded: significantly greater in the coronary artery than in the femoral artery”, the “effect on relaxation to sodium nitroprusside (in words)” value (bovine coronary artery; subthreshold doses of S-nitrosocaptopril, FIG. 5) was “inhibited” and the “inhibition of contractions to angiotensin I, S-nitrosocaptopril versus captopril (in words)” value [4] was “equally inhibited contractions to angiotensin I”. The “shift in the response to angiotensin I (rounded, discussion)” value [4] was 50 fold, the “log shift at the ED50 in the response to angiotensin I” value ([4]; 10^-6 M, n=6, p<0.001, FIG. 9) was 1.74±0.25 log and the “shift at the ED50 in the response to angiotensin I” value ([4]; 10^-6 M, n=6, p<0.001, FIG. 9) was 56 fold. The “cAMP levels, vessel rings (in words)” value [5] was “did not change from basal levels”, the “cGMP level, vascular rings” value [5] was 0.0375 pmol/mg tissue and the fold induction at 10 µM ([5]; Bos taurus, 1 min, read-out: increase of cGMP levels, vascular rings) was 36.5. The “effect on blood pressure (in words)” value [6] was “clear decrease in blood pressure”.
